{"source": "patent US20120316199A1", "about": "“COMPOSITIONS AND METHODS FOR TREATING, CONTROLLING, REDUCING, OR AMELIORATING INFLAMMATORY PAIN” (priority 2011, published 2012)", "key": {"[1]": {"test_system": "protein concentration in the aqueous humor", "assay": "Protein measurement in aqueous humor, rabbit paracentesis model", "type": "in vivo, Rabbit (New Zealand)", "settings": "for Protein level in aqueous humor, Mean: group mean", "procedure": "(§1) Each rabbit was placed in a restraint device and tagged with the alphanumeric code. The formulations were instilled (50 μl) into the conjunctival sac of both eyes 180, 120, 90 and 30 min before the first paracentesis; then 15, 30, 90 min after the first paracentesis. To perform the first paracentesis the animals were anaesthetized by intravenous injection of 5 mg/kg Zoletil® (Virbac; 2.5 mg/kg tiletamine HCl and 2.5 mg/kg zolazepam HCl) and one drop of local anesthetic (Novesina®, Novartis) was administered to the eye. Anterior chamber paracentesis was performed with a 26 G needle attached to a tuberculin syringe; the needle was introduced into the anterior chamber through the cornea, taking care not to damage the tissues. Two hours after the first paracentesis, the animals were sacrificed with 0.4 ml Tanax® (Intervet International B.V.) and the second paracentesis was performed. About 100 μl of aqueous humor were removed at the second paracentesis. Aqueous humor was immediately split in four aliquots and stored at −80° C. until analysis. Then both eyes were enucleated and the iris-ciliary body was carefully excised, placed in polypropylene tubes, and stored at −80° C. until analysis.\nFor protein concentration determination in the aqueous humor we used the Protein Quantification Kit (Fluka; Cat. No. 77371; Lot. No. 1303129). Five microliters of aqueous humor were diluted to 100 μl with water. Twenty microliters of samples and of standards were load into a 96-well plate and recorded in a plate layout. Samples were treated following the assay procedure described in the kit. A microplate reader (GDV, Italy; model DV 990 B/V6) set at 670 nm was used for making the calibration and analyzing the samples.\n(§2) Pupillary diameter, PGE2, protein, PMN, and MPO were expressed as mean±SEM. Statistical analysis was performed using one way ANOVA followed by a Newman-Keuls post hoc test. Clinical score was expressed as % of eyes and the statistical analysis was performed using Kruskal-Wallis followed by a Dunn post hoc test. P<0.05 was considered statistically significant in both cases. Prism 4 software (GraphPad Software, Inc.) was used for the analysis and graphs."}, "[2]": {"test_system": "MPO activity in iris-ciliary body", "assay": "Myeloperoxidase (MPO) activity in iris-ciliary body, rabbit paracentesis model", "type": "in vivo, Rabbit (New Zealand)", "settings": "for MPO activity in iris-ciliary body: individual samples collected after the second paracentesis, listed as BOL; for MPO activity in iris-ciliary body, Mean: after the second paracentesis, group mean", "procedure": "as §1\nThe activity of MPO was measured as previously described by Williams et al.[5] The iris-ciliary bodies were carefully dried, weighed and immersed in 1 ml of hexa-decyl-trimethyl-ammonium bromide solution. Then, the samples were sonicated for 10 sec on ice by a ultrasound homogenizer (HD 2070, Bandelin electronic), freeze-thawed three times, sonicated for 10 sec and centrifuged at 14,000 g for 10 min to remove cellular debris. An aliquot of the supernatant (40-200 μl) was diluted to 3 ml with the o-dianisidine 2HCl/H2O2 solution. The change in absorbance at 460 nm was continuously monitored for 5 min by a spectrophotometer (UV/Vis Spectrometer Lambda EZ 201; Perkin Elmer). The slope of the line (Δ/min) was determined for each sample and used to calculate the number of units of MPO in the tissue as follows:\nValues were expressed as units of MPO/g of tissue.\nas §2"}, "[3]": {"test_system": "leukocytes (PMN) in aqueous humor", "assay": "Leukocytes (PMN) measurement in aqueous humor, rabbit paracentesis model", "type": "in vivo, Rabbit (New Zealand)", "settings": "second paracentesis, group mean", "procedure": "as §1\nFor the determination of the number of leukocytes we used a haernocytometer (Improved Neubauer Chamber; Bright-line, Hausser Scientific) and a Polyvar 2 microscope (Reichert-Jung).\nas §2"}, "[4]": {"test_system": "visual acuity", "assay": "Clinical study after cataract surgery: Snellen visual acuity (safety)", "type": "in vivo, human", "settings": "overall", "description": "There were 8 treatment groups in this study, consisting of three drug doses, vehicle and three dosing frequencies (see also Table 4-1): • Group A: 1% BOL-303242-X ophthalmic suspension, two times per day (BID) • Group B: 2% BOL-303242-X ophthalmic suspension, one time per day (QD) • Group C: 2% BOL-303242-X ophthalmic suspension, BID • Group D: 2% BOL-303242-X ophthalmic suspension, four times per day (QID) • Group E: 3% BOL-303242-X ophthalmic suspension, QD • Group F: 3% BOL-303242-X ophthalmic suspension, BID • Group G: 3% BOL-303242-X ophthalmic suspension, QID • Group H: Vehicle for BOL-303242-X (divided equally into QID, BID, and QD)\nVisit 1 (screening), Visit 2 (cataract surgery), Visit 3 (postoperative Day 1), Visit 4 (postoperative Day 3±1 day), Visit 5 (postoperative Day 8±1 day), Visit 6 (postoperative Day 15±1 day), Visit 7 (postoperative Day 18±1 day). Subject assessments included adverse events (AEs), concomitant medications, ocular symptoms, pinholed Snellen visual acuity (VA), intraocular pressure (IOP), ocular signs (biomicroscopy), fundoscopy, and study drug drop sensation. In addition, subject diaries were collected and reviewed for accuracy and treatment compliance.\nSafety: The safety endpoints in this study were: incidence of AEs, change in IOP, ocular signs (biomicroscopy), Snellen VA, fundoscopy, study drug drop sensation assessment."}, "[5]": {"test_system": "iris and conjunctival vessels, anterior chamber", "assay": "Clinical evaluation by slit lamp (clinical score), rabbit paracentesis model", "type": "in vivo, Rabbit (New Zealand)", "set-up": "key to Clinical Score −180 min / Clinical Score −5 min / Clinical Score +115 min: 0=normal; 1=discrete dilatation of iris and conjunctival vessels; 2=moderate dilatation of iris and conjunctival vessels; 3=intense iridal hyperemia with flare in the anterior chamber; 4=intense iridal hyperemia with flare in the anterior chamber and presence of fibrinous exudates", "settings": "for Clinical Score −5 min: 5 min before the first paracentesis; for Clinical Score −5 min / Clinical Score +115 min / Clinical Score −180 min: raw data per eye; for Clinical Score +115 min: 5 min before the second paracentesis; for Clinical Score −180 min: basal"}, "[6]": {"settings": "0.1% formulation, +115 min, N=8 eyes"}, "[7]": {"settings": "0.5% formulation, +115 min, N=8 eyes"}}, "note": "Where “and” joins values, the source holds several entries; their conditions need not be identical. Equal entries are not always repeated.", "data": [{"smiles": "Cc1ccc2c(NC[C@](O)(CC(C)(C)c3cc(F)cc4c3OCC4)C(F)(F)F)cccc2n1", "note": "[BOL-303242-X, mapracorat]", "values": [{"measurement": "Protein level in aqueous humor, Mean", "setting": "[1]; 0.1% formulation, second paracentesis", "result": 33.667, "unit": "mg/mL"}, {"measurement": "Protein in aqueous humor, statistical significance vs CTR", "setting": "[1]; 0.5% formulation, p<0.05", "result": "statistical significance"}, {"measurement": "Protein level in aqueous humor, Mean", "setting": "[1]; 0.5% formulation, second paracentesis", "result": 28.844, "unit": "mg/mL"}, {"measurement": "Protein level in aqueous humor, raw data", "setting": "[1]; 0.5% formulation, second paracentesis, per eye, listed as BOL", "result": "33.98 mg/mL and 33.65 mg/mL and 19.99 mg/mL and 27.11 mg/mL and 19.72 mg/mL and 36.35 mg/mL and 27.71 mg/mL and 32.24 mg/mL"}, {"measurement": "Protein in aqueous humor, statistical significance vs CTR", "setting": "[1]; 1% formulation, p<0.001", "result": "statistical significance"}, {"measurement": "Protein level in aqueous humor, Mean", "setting": "[1]; 1% formulation, second paracentesis", "result": 21.435, "unit": "mg/mL"}, {"measurement": "MPO activity in iris-ciliary body", "setting": "[2]; 0.1% BOL", "result": "1.04 Unit/g and 1.14 Unit/g and 1.06 Unit/g and 1.22 Unit/g and 1.05 Unit/g"}, {"measurement": "MPO activity in iris-ciliary body, Mean", "setting": "[2]; 0.1% formulation", "result": 0.971, "unit": "MPO Unit/g"}, {"measurement": "MPO activity in iris-ciliary body", "setting": "[2]; 0.5% BOL", "result": 1.03, "unit": "Unit/g"}, {"measurement": "MPO activity in iris-ciliary body, Mean", "setting": "[2]; 0.5% formulation", "result": 0.775, "unit": "MPO Unit/g"}, {"measurement": "MPO activity in iris-ciliary body", "setting": "[2]; 1% BOL", "result": 1.02, "unit": "Unit/g"}, {"measurement": "MPO activity in iris-ciliary body, Mean", "setting": "[2]; 1% formulation", "result": 0.542, "unit": "MPO Unit/g"}, {"measurement": "PMN numbers in aqueous humor, Mean", "setting": "[3]; 0.1% formulation", "result": 28.333, "unit": "number/μl"}, {"measurement": "PMN numbers in aqueous humor, Mean", "setting": "[3]; 0.5% formulation", "result": 21.250, "unit": "number/μl"}, {"measurement": "PMN numbers in aqueous humor, Mean", "setting": "[3]; 1% formulation", "result": 28.750, "unit": "number/μl"}, {"measurement": "subjects whose VA did not decline by two lines or more", "setting": "[4]", "result": "more than 92%"}, {"measurement": "Clinical Score −5 min", "setting": "[5]; 0.1% formulation", "result": 0}, {"measurement": "Clinical Score +115 min", "setting": "[5]; 0.1% formulation, listed as BOL", "result": "2 and 3"}, {"measurement": "Percentage of eyes with clinical score 2", "setting": "[5]; [6]", "result": 75, "unit": "%"}, {"measurement": "Percentage of eyes with clinical score 3", "setting": "[5]; [6]", "result": 25, "unit": "%"}, {"measurement": "Clinical Score −180 min", "setting": "[5]; 0.1% formulation", "result": 0}, {"measurement": "Percentage of eyes with clinical score 0", "setting": "[5]; 0.1% formulation, −5 min, N=8 eyes", "result": 100, "unit": "%"}, {"measurement": "Percentage of eyes with clinical score 0", "setting": "[5]; 0.1% formulation, −180 min (basal), N=8 eyes", "result": 100, "unit": "%"}, {"measurement": "Clinical Score −5 min", "setting": "[5]; 0.5% formulation", "result": 0}, {"measurement": "Clinical Score +115 min", "setting": "[5]; 0.5% formulation, listed as BOL", "result": "2 and 1"}, {"measurement": "Percentage of eyes with clinical score 1", "setting": "[5]; [7]", "result": 37.5, "unit": "%"}, {"measurement": "Percentage of eyes with clinical score 2", "setting": "[5]; [7]", "result": 62.5, "unit": "%"}, {"measurement": "Clinical Score −180 min", "setting": "[5]; 0.5% formulation", "result": 0}, {"measurement": "Percentage of eyes with clinical score 0", "setting": "[5]; 0.5% formulation, −5 min, N=8 eyes", "result": 100, "unit": "%"}, {"measurement": "Percentage of eyes with clinical score 0", "setting": "[5]; 0.5% formulation, −180 min (basal), N=8 eyes", "result": 100, "unit": "%"}, {"measurement": "Clinical Score −5 min", "setting": "[5]; 1% formulation", "result": 0}, {"measurement": "Clinical Score +115 min", "setting": "[5]; 1% formulation", "result": 2}, {"measurement": "Percentage of eyes with clinical score 2", "setting": "[5]; 1% formulation, +115 min, N=8 eyes", "result": 100, "unit": "%"}, {"measurement": "Clinical Score −180 min", "setting": "[5]; 1% formulation", "result": 0}, {"measurement": "Percentage of eyes with clinical score 0", "setting": "[5]; 1% formulation, −5 min, N=8 eyes", "result": 100, "unit": "%"}, {"measurement": "Percentage of eyes with clinical score 0", "setting": "[5]; 1% formulation, −180 min (basal), N=8 eyes", "result": 100, "unit": "%"}]}]}
